Experimental findings from paper PMC9822133, “Design, Synthesis and Antiproliferative Evaluation of Bis-Indole Derivatives with a Phenyl Linker: Focus on Autophagy” (Molecules, 2022) are described below.

Each structure is given as a SMILES string.

Broadly, the IC50 is the concentration that gives 50% inhibition. Low values mean greater potency, high ones weaker potency.

For one assay, the system named is HCT116. The assay is described as follows: MTT screening assay, HCT116. The format is cell-based. The settings on record: Homo sapiens, HCT-116, 72 h incubation. From the text:
(§1) The ability of newly synthesized indole phytoalexins to suppress cell proliferation was screened in vitro on eight cancer cell lines including human colorectal carcinoma (Caco-2 and HCT116), human cervical cancer (HeLa), human breast adenocarcinoma (MCF-7, MDA-MB-231), human alveolar adenocarcinoma (A549) and human leukemic T cell lymphoma (Jurkat), and two non-cancer cell lines (MCF-10A, Cos-7).
(§2) The cell lines used for this study were Caco-2 (human colorectal adenocarcinoma cell line, American Type Culture Collection, Manassas, VA, USA (ATCC)), HCT116 (human colorectal carcinoma cells European Collection of Authenticated Cell Cultures, Salisbury, UK (ECACC)), HeLa (human cervical tumor cells, ECACC), MCF-7 (human breast tumor cells, ECACC), MDA-MB-231 (human breast tumor cells, ATCC), A549 (human lung carcinoma cells, ATCC), BLM (human melanoma lung metastases, a gift from prof. K. Smetana, Institute of Anatomy, Charles University in Prague), Jurkat (human leukemia cell line, ECACC), Cos-7 (immortalized monkey kidney fibroblasts, ATCC) and MCF-10A (human mammary epithelial cells, ATCC). Caco-2, MCF-7, BLM, Cos-7 and A549 cells were cultured in Dulbecco’s Modified Eagle’s Medium (DMEM) with high glucose and sodium pyruvate (GE Healthcare, Piscataway, NJ, USA); HCT116 lines, HeLa, MDA-MB-231 and Jurkat were cultured in RPMI-1640 medium; and MCF10A cells were cultured in high glucose DMEM/F12 (Dulbecco’s Modified Eagle’s Medium F12). The media were enriched with 10% fetal bovine serum (FBS) and a 1% solution of a mixture of antibiotics and antimycotics 1× HyClone™ (GE Healthcare, Chicago, IL, USA). DMEM/F12 medium was supplemented with epidermal growth factor (EGF) (20 ng/mL final), hydrocortisone (0.5 μg/mL final) and insulin (10 μg/mL final) (Sigma-Aldrich Chemie, Steinheim, Germany). The cells were placed in an incubator at 37 °C with humidified air containing 5% CO2.
(§3) The MTT assay is a colorimetric method used to quantify the metabolic activity of cells. MTT (3-(4,5-di-methylthiazol-2-yl)2,5-diphenyltetrazolium bromide) (Sigma-Aldrich Chemie, Steinheim, Germany) is reduced by oxidoreductases in the cytosol of cells to light-absorbing formazan, the presence of which can be measured spectrophotometrically and determines the half-maximal inhibitory concentration (IC50). A549 cells were seeded in […] culture plates at a density of 5 × 10^3 per well. […]
(§4) We also incubated the cells with chloroquine at concentrations of 5–20 µM, which was added 1 h before the addition of the test substance, and cisplatin at concentrations of 3–10 µM. […] After 24 h, the absorbance was measured at a wavelength of 540 nm using an automated Cytation™ 3 Cell Imaging Multi-Mode Reader (Biotek, Winooski, VT, USA). […]
Background: Tetrazolium assays rely on reduction of a dye to a coloured formazan, in cell work by metabolically active cells.

A further assay deals with HeLa. Kind of assay: MTT screening assay, HeLa. Type of assay: cell-based. The settings on record: Homo sapiens, 72 h incubation.
Excerpt: as §1, §2, §3, §4

A further assay has as its system Jurkat. The assay is described as follows: MTT screening assay, Jurkat. Type of assay: cell-based. The settings on record: Homo sapiens, 72 h incubation.
Excerpt: as §1, §2, §3, §4

Another assay concerns MDA-MB-231. The assay is described as follows: MTT screening assay, MDA-MB-231. The following applies: Homo sapiens, 72 h incubation. Type of assay: cell-based.
Excerpt: as §1, §2, §3, §4

A further assay has as its system Phospho-AMPKα. The assay is described as follows: Western blot, phospho-AMPK. The format is cell-based, human. The settings on record: A549, 24, 48, 72 h. From the text: ULK1/AMPK. ULK1 is a serine/threonine protein kinase. The ULK1 complex controls the formation of the phagophore, the initial autophagosomal precursor membrane structure. Upon induction of autophagy, the ULK1 complex translocates to autophagy initiation sites and regulates the recruitment of a second kinase complex, VPS34. ULK1 can be inhibited by phosphorylation by mammalian target of rapamycin complex 1 (mTORC1) or activated after AMP-activated protein kinase (AMPK) phosphorylation. Under conditions of nutrient deficiency, AMPK is activated, which directly activates ULK1. The kinase is phosphorylated, i.e., activated by an increased AMP/ATP ratio due to cellular and environmental stress. AMPK also inactivates mTORC1 and thus blocks its inhibitory action on autophagy activation.
A549 cells were seeded on Petri dishes (55 cm^2) at a density of 1 × 10^6 and allowed to culture in the medium. After 24 h, the test substance was added, and the cells were incubated for 24, 48 and 72 h. […] After lysis, the cells were sonicated, and the protein concentration in the samples was quantified using the Pierce® BCA Protein Assay Kit (Thermo Scientific, Rockford, IL, USA) and measured by an automated Cytation™ 3 Cell Imaging Multi-Mode Reader (Biotek) at a wavelength of 570 nm. […]
A general note: A western blot detects proteins with antibodies after separation by electrophoresis.

Take `CC(C)(C)OC(=O)n1cc(CNC(=O)Nc2ccc(NC(=O)NCc3cn(C(=O)OC(C)(C)C)c4ccccc34)cc2)c2ccccc21` [Compound 49, N,N′-(1,4-phenylene)bis{N′-[1-(tert-butoxycarbonyl)indol-3-yl]methyl (urea)}]: the IC50 with HCT116 is 8.8 ± 0.6 µM; in the assay on HeLa, 8.9 ± 0.2 µM; in the assay on Jurkat, 98.8 ± 1.7 µM; in the assay on MDA-MB-231, greater than 100 µM. In addition, the “phosphorylated form of AMPK” value in the assay on Phospho-AMPKα is on record as “significant increase”.
